Legend:
white male mice = details: for LD50: intraperitoneal injection, white male mice, 14 days observation
Procedure: The acute toxicity of 1,3-dialkyl-4,5-bis (N-methylcarbamoyl)imidazolium salts was assessed following intraperitoneal injection into 200 white male mice weighing 18 to 20 g. Dead animals were counted daily after the administration of the test substance.

[1] = test system: lesions of the gastric mucosa; assay: Gastric lesions induced by electrostimulation of immobilised rats; type: in vivo
Procedure: (§1) The models used gastric ulcers induced by
a) Electrostimulation of immobilised rats for 3 hours;
(§2) The compounds were administered intraperitoneally at a dose of 20 mg/kg; in the cryogenic ulcer model compound 2 was administered either intraperitoneally (10 mg/kg) or orally (20 mg/kg twice daily, ie. a total of 40 mg/kg/day) and was compared to orally-administered gastrocepin (1 mg/kg twice daily, ie. a total of 2 mg/kg/day).

[2] = test system: acute Con A-induced inflammation; assay: Acute Con A-induced inflammation (paw oedema) in mice; type: in vivo
Procedure: Saline solution was similarly administered to the control animals. There were 10 mice in each group. After one hour, con A at a dose of 100 mkg/20 g of body weight was administered by sub-plantar injection into the plantar aponeurosis of the left paws of mice of both the experimental and control groups. The same amount of saline splution was injected into the contralateral paws. After one hour, the mice were killed and the experimental and control paws were weighed to assess the reaction index of the inflammation in the ankle-joint (Liubimov et al, 1999).
The anti-inflammatory effect of Compound 2 and Compound 7 was compared in male mice weighing 18-22 g, using the model described in Example 9. The ED50, i.e. the dose reducing paw ooedema by 50% one hour after injection of Concanavalin A, was calculated.

[3] = test system: cryogenic ulcer of the gastric mucosa; assay: Cryogenic gastric ulcer in rats; type: in vivo; details: healing effect over the course of 14 days; regimen not printed in the row
Procedure: as §1
c) Ulcer created by local wounding with a cryogenic probe using a method similar to that described above for mouth ulcers.
as §2

[4] = test system: lesions of the gastric mucosa; assay: Gastric lesions induced by immobilization and hypothermia; type: in vivo, rats; design: % reduction of degree of ulceration / % reduction of ulcerated area: concentration or dose not given beside the values; details: Protective effect, 30 minutes before the test
Procedure: as §1
b) Immobilization and hypothermia (induced by water cooling);
as §2

[5] = test system: neurogenic dystrophy of the myocardium; assay: Myocardial infarction model (electrostimulation), enzymes in rabbit myocardium; type: in vivo, rabbits; details: 5 mg/kg; 48 hours after electrostimulation
Excerpt: The effect of Compound 2 on myocardial tissue in an experimental model of myocardial infarction was examined. In this model system neurogenic dystrophy of the myocardium was induced in rats or rabbits by electrical stimulation of the reflexogenic zone of the aortic arch by implanted electrodes for a period of three hours. […] These changes are accompanied by changes in biochemical indicators such as creatine phosphate, cAMP, and calcium ion concentrations, and changes in the activity of redox enzymes such as succinate dehydrogenase, lactate dehydrogenase, and glucose-6-phosphate dehydrogenase. At a later stage organic lesions of the myocardium such as necrotic and fibrosclerotic foci can be observed.
The effect of Compound 2 given intraperitoneally or orally on these indicators was examined in rats and rabbits following electrostimulation as described above. The effects on levels of creatine phosphate in rat myocardial are shown in Table 19, and the effects on adenosine triphosphatase (ATPase), succinate dehydrogenase and glucose-6-phosphate dehydrogenase rabbit myocardium are shown in Table 20. The effects on cAMP and Ca^++ levels in rabbit myocardial tissue are shown in FIG. 5, and effects on creatine kinase in rabbit myocardium and blood and the levels of creatine phosphate in myocardium are shown in FIG. 6.

[6] = test system: cryogenic injuries of the sigmoid colon; assay: Cryogenic damage of the colon, model of ulcerative colitis; type: in vivo, rats; details: day 7; oral; Methyl uracil 180 mg/kg, Potassium orotate 50 mg/kg + Riboxin 50 mg/kg, Sulfasalazine 2 g/kg; one figure for the comparison agents
Procedure: A model of cryogenic damage of the colon was used in this experiment to simulate ulcerative colitis. Cryogenic injuries of the sigmoid colon of rats were induced by pressing a metal rod of […] in diameter cooled in liquid nitrogen to the serous membrane of the colon for 10 seconds under ether anaesthesia.
Tests were performed on 67 male rats weighing 180-200 g, with 8 animals in each group. Animals were kept in separate cages, with normal food and water ad libitum. The test compounds were administered orally on the second day after the operation, and then daily until healing was complete. Compound 2 or Compound 6 was administered to test animals at a dose of 20-50 mg/kg. The following agents were used for comparison:
The nature of the healing of the ulcer injury was examined morphologically on days 1, 3 and 7. […] The inflammatory process extends beyond the injured area into the adjacent areas, and beyond the peritoneum into fatty connective tissue.

myocardial infarction = assay: Clinical comparison of Compound 2 and Riboxin in subacute myocardial infarction (Example 25); type: in vivo, human
Procedure: A total of 94 patients were examined; of these:
Conventional therapy as for example 24 was given to 30 patients. Each patient continued to receive the treatment which s/he had been given prior to commencement of the trial. Compound 2 was administered in addition to the previous treatment.
All the patients underwent standard laboratory tests prior to commencement of Compound 2 therapy, 14 days after the beginning of the course and upon completion of the course. The tests included clinical blood analysis; general urine analysis; evaluation of creatinine, bilirubin, transaminase activity, blood sugar, cholesterol and β-lipoproteins, malonic dialdehyde, Schiff bases, zinc, iron, copper, plasma potassium and sodium, prothrombin and fibrinogen; and an ECG examination in dynamics.
All the patients received conventional therapy, i.e. nitrates, anticoagulants and/or hypotensive agents as appropriate.
Combination therapy included Compound 2 (1st group—32 patients) or Riboxin (2nd group—18 patients). The agents were administered at a dose of 200 mg three times per day.

[7] = Healing effect over the course of 3 days
[8] = Protective effect, 30 minutes before the test
[9] = Table 4, 0.005M dose (Compound 2 19 mg/kg, Compound 7 16.4 mg/kg) + Con A
[10] = Table 4, 0.01M dose (Compound 2 38 mg/kg, Compound 7 32 mg/kg) + Con A
[11] = Table 4, 0.015M dose (Compound 2 57 mg/kg, Compound 7 49 mg/kg) + Con A
[12] = Table 4, 0.02M dose (Compound 2 76 mg/kg, Compound 7 65.6 mg/kg) + Con A
[13] = 200 mg three times per day plus conventional therapy

Compound: 1,3-dimethyl-4,5-bis(N-methylcarbamoyl)-imidazolium benzenesulfonate [Compound 1]
- toxicity (white male mice): very low toxicity
- LD50 (white male mice): 1833 mg/kg
- % reduction of degree of ulceration [1, 7]: 18%
- Average number of lesions per animal [1, 7]: 2.8 ± 0.7
- % reduction of degree of ulceration [1, 8]: 0%
- % reduction of ulcerated area [1, 8]: 0%
- Area of lesion [1, 8]: 15.0 ± 4.7
- Average number of lesions per animal ([1]; Protective effect, 30 minutes before the test, 20 mg/kg intraperitoneally): 7.0 ± 0.7
- Reaction index (%) ([2]; Table 3, 10 mg/kg intra-peritoneally one hour before Con A, male CBA mice): 14.6 ± 3.5%
- Reaction index (%) ([2]; Table 3, 50 mg/kg intra-peritoneally one hour before Con A, male CBA mice): 5.3 ± 2.0 %
- % reduction of degree of ulceration [3]: 53%
- Average number of lesions per animal [3]: 8.8 ± 1.9
- % reduction of degree of ulceration [4]: 0%
- % reduction of ulcerated area [4]: 0%
- Area of lesion [4]: 10.1 ± 1.4
- Average number of lesions per animal ([4]; 20 mg/kg intraperitoneally): 10.2 ± 1.2

Compound: 1-methyl-3-ethyl-4,5-bis(N-methylcarbamoyl)-imidazolium 2,4-dihydroxybenzoate [Compound 7]
- toxicity (white male mice): very low toxicity
- LD50 (white male mice): 1221 mg/kg
- Paw oedema reduction (%) [2, 9]: 60%
- Reaction index (%) [2, 9]: 6.73 ± 2.2%
- Paw oedema reduction (%) [2, 10]: 13%
- Reaction index (%) [2, 10]: 9.93 ± 2.8%
- Paw oedema reduction (%) [2, 11]: 45%
- Reaction index (%) [2, 11]: 7.2 ± 1.8%
- Paw oedema reduction (%) [2, 12]: 70%
- Reaction index (%) [2, 12]: 4.9 ± 1.7%
- ED50, dose reducing paw oedema by 50% one hour after injection of Concanavalin A ([2]; male mice): 52 mg/kg

Compound: CCn1cnc(C(=O)NC)c1C(=O)NC [Ethimizol, 1-ethylimidazole-4,5-dicarboxylic acid bis-N-methylamide, reference compound]
- ATPase [5]: 0.43 ± 0.11 µM/mg/min
- Glucose-6-phosphate dehydrogenase (optical density units) [5]: 5.8 ± 0.7 optical density units
- Succinate dehydrogenase (optical density units) [5]: 39.7 ± 7.4 optical density units

Compound: Cc1cc(=O)[nH]c(=O)[nH]1 [Methyl uracil, reference compound]
- animals demonstrating complete healing [6]: 18%

Compound: OC[C@H]1O[C@@H](n2cnc3c(O)ncnc32)[C@H](O)[C@@H]1O [Riboxin, inosine, reference compound]
- cholesterol levels (myocardial infarction; [13]): 85.5%
- level of prothrombin (myocardial infarction; [13]): 88.7%
- ejection fraction (myocardial infarction; 200 mg three times per day plus conventional therapy, 54.4±1.5% in the absence of the agent): 56.8±1.3%
- superoxide dismutase levels (myocardial infarction; after therapy, 18-20 before treatment, norm 23): 21.5 conventional units
- level of Schiff bases (myocardial infarction; after therapy, 75 before treatment, normal 60): 62.6 conventional units
- cases in which cicatrisation took place one or two days earlier (myocardial infarction; patients with repeated myocardial infarct): 12%

Compound: O=C(O)c1cc(/N=N/c2ccc(S(=O)(=O)Nc3ccccn3)cc2)ccc1O [Sulphasalazine, Sulfasalazine, reference compound]
- animals demonstrating complete healing [6]: 18%

Source: US20060135587A1, “Method and compounds for promoting healing and reducing inflammation” (priority 2002, published 2006)
